Measurements published in the supplement of paper PMC10307832.

What was measured:
Experiment in all cases: relative viability (nuclei count vs DMSO), 5 days (fraction); higher = more cells survive
NCI-H1915 = tested on: NCI-H1915
In short: (§1)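 Each reported value is a median over duplicate plates. It expresses relative viability: treated-well nuclei count divided by vehicle-well nuclei count. Lung cancer cell lines in 1536-well plates were dosed by pin tool a day after seeding, alone with one drug or with a fixed anchor-drug dose plus five library-drug doses (not always all listed) in √10 steps, and nuclei were counted after 5 days.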

NCI-H1437 = tested on: NCI-H1437
In short: as §1

HCC-44 = tested on: HCC-44
In short: as §1

HCC-15 = tested on: HCC-15
In short: as §1

NCI-H727 = tested on: NCI-H727
In short: as §1

NCI-H2170 = tested on: NCI-H2170
In short: as §1

NCI-H1755 = tested on: NCI-H1755
In short: as §1

NCI-H3122 = tested on: NCI-H3122
In short: as §1

HOP-62 = tested on: HOP-62
In short: as §1

BEN = tested on: BEN
In short: as §1

NCI-H650 = tested on: NCI-H650
In short: as §1

Structure (SMILES): Cc1csc(=NC2CCCCC2)n1/N=C/c1ccc(O)c(O)c1O [MIM1] + CC(=O)c1c(C)c2cnc(Nc3ccc(N4CCNCC4)cn3)nc2n(C2CCCC2)c1=O [Palbociclib] (partner 0.5 µM)
- relative viability (NCI-H1915; first compound 2 µM): 0.497
- relative viability (NCI-H1915; first compound 6.325 µM): 0.395
- relative viability (NCI-H1915; first compound 20 µM): 0.181
- relative viability (NCI-H1437; first compound 0.2 µM): 0.305
- relative viability (NCI-H1437; first compound 0.6325 µM): 0.35
- relative viability (NCI-H1437; first compound 2 µM): 0.312
- relative viability (NCI-H1437; first compound 6.325 µM): 0.232
- relative viability (NCI-H1437; first compound 20 µM): 0.149
- relative viability (HCC-44; first compound 0.2 µM): 0.902
- relative viability (HCC-44; first compound 0.6325 µM): 0.981
- relative viability (HCC-44; first compound 2 µM): 0.94
- relative viability (HCC-44; first compound 6.325 µM): 0.608
- relative viability (HCC-44; first compound 20 µM): 0.578
- relative viability (HCC-15; first compound 0.2 µM): 0.763
- relative viability (HCC-15; first compound 0.6325 µM): 0.709
- relative viability (HCC-15; first compound 2 µM): 0.763
- relative viability (HCC-15; first compound 6.325 µM): 0.433
- relative viability (HCC-15; first compound 20 µM): 0.121
- relative viability (NCI-H727; first compound 0.2 µM): 0.634
- relative viability (NCI-H727; first compound 0.6325 µM): 0.686
- relative viability (NCI-H727; first compound 2 µM): 0.605
- relative viability (NCI-H727; first compound 6.325 µM): 0.546
- relative viability (NCI-H727; first compound 20 µM): 0.472
- relative viability (NCI-H2170; first compound 0.2 µM): 0.38
- relative viability (NCI-H2170; first compound 0.6325 µM): 0.398
- relative viability (NCI-H2170; first compound 2 µM): 0.373
- relative viability (NCI-H2170; first compound 6.325 µM): 0.227
- relative viability (NCI-H2170; first compound 20 µM): 0.142
- relative viability (NCI-H1755; first compound 0.2 µM): 0.432
- relative viability (NCI-H1755; first compound 0.6325 µM): 0.453
- relative viability (NCI-H1755; first compound 2 µM): 0.431
- relative viability (NCI-H1755; first compound 6.325 µM): 0.419
- relative viability (NCI-H1755; first compound 20 µM): 0.306
- relative viability (NCI-H3122; first compound 0.2 µM): 0.186
- relative viability (NCI-H3122; first compound 0.6325 µM): 0.195
- relative viability (NCI-H3122; first compound 2 µM): 0.174
- relative viability (NCI-H3122; first compound 6.325 µM): 0.187
- relative viability (NCI-H3122; first compound 20 µM): 0.124
- relative viability (HOP-62; first compound 0.2 µM): 0.454
- relative viability (HOP-62; first compound 0.6325 µM): 0.44
- relative viability (HOP-62; first compound 2 µM): 0.404
- relative viability (HOP-62; first compound 6.325 µM): 0.431
- relative viability (HOP-62; first compound 20 µM): 0.127
- relative viability (BEN; first compound 0.2 µM): 0.507
- relative viability (BEN; first compound 0.6325 µM): 0.466
- relative viability (BEN; first compound 2 µM): 0.438
- relative viability (BEN; first compound 6.325 µM): 0.468
- relative viability (BEN; first compound 20 µM): 0.407
- relative viability (NCI-H650; first compound 0.2 µM): 0.372
- relative viability (NCI-H650; first compound 0.6325 µM): 0.359
- relative viability (NCI-H650; first compound 2 µM): 0.317
- relative viability (NCI-H650; first compound 6.325 µM): 0.366
- relative viability (NCI-H650; first compound 20 µM): 0.159
